In the METLIN SMRT retention time set (Domingo-Almenara et al. 2019):

Experiment: gradient 5% acetonitrile 3 min, to 50% in 2 min, to 85% in 15 min, held 3 min, 100 µL/min
Details: column: Zorbax Extend-C18 2.1 x 50 mm; eluents: water / acetonitrile, 0.1% formic acid
Outline: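 Using water and acetonitrile that each contained 0.1% formic acid, mixtures of ~100 pure standards were separated at 100 μL/min on a Zorbax Extend-C18 column (2.1 × 50 mm, 1.8 μm). The HPLC fed a quadrupole time-of-flight mass spectrometer working in positive and negative ionization mode, with dead and dwell volumes of 40 μL and 900 μL. Data were acquired over 3 months. Retention time was read from computationally picked adduct peaks after manual inspection of each.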

| SMILES | RP-LC retention time |
| --- | --- |
| N#CCCN(c1ccc(C=O)cc1)S(=O)(=O)c1ccccc1 | 770 s |
| O=c1ccc(-c2cccs2)nn1CCNS(=O)(=O)c1ccc(F)c(Cl)c1 | 796 s |
| Cc1ccccc1NC(=O)NCCc1nc2cccnc2n1C1CCCC1 | 708 s |
| COCc1noc([C@@H]2CC(F)(F)CN2C(=O)c2nccn2C)n1 | 716 s |
| COC(=O)C1=CN(c2cc(OC)ccc2OC)c2cc(F)ccc2S1(=O)=O | 819 s |
| CCNC(=O)C[C@@H]1N=C(c2ccc(Cl)cc2)c2cc(OC)ccc2-n2c(C)nnc21 | 797 s |
| O=C(NCC(c1cccs1)S(=O)(=O)c1ccc(F)cc1)c1nc2ccccc2s1 (centres undefined) | 948 s |
| CCCn1c(=O)sc2cc(S(=O)(=O)N3CCC(C(=O)Nc4cccc(C)c4)CC3)ccc21 | 1010 s |
| Cc1nc(-c2noc(-c3ccccc3)n2)cn1CC(=O)Nc1ccc(Cl)cc1 | 885 s |
| CC(C)NC(=O)N1CCCC1c1nc(-c2cccc(Cl)c2)no1 (centres undefined) | 906 s |
| COC(=O)c1ccc(NC(=O)CN2CCc3[nH]c4c(C)ccc(F)c4c(=O)c3C2)cc1 | 604 s |
| Cc1ccccc1OCCCC(=O)Nc1nc(-c2ccc(Br)cc2)cs1 | 1280 s |
| CCc1nc2cc(N3CCCC(C(=O)NCC4CC4)C3)cnc2nc1CC (centres undefined) | 762 s |
| CC(Cc1ccco1)NC(=O)C1CCN(S(=O)(=O)c2ccc3c(c2)sc(=O)n3C(C)C)CC1 (centres undefined) | 920 s |
| O=C(Cn1ccc2sccc2c1=O)Nc1ccc(Cl)cc1 | 776 s |
| COc1cccc(-c2noc(CN3C(=O)COc4ccccc43)n2)c1 | 981 s |
| COC(=O)C1=CN(c2ccccc2C)c2cc(F)ccc2S1(=O)=O | 832 s |
| Cc1ccc(CNS(=O)(=O)c2cc(-c3[nH]ncc3C(=O)N3CCCC3)oc2C)o1 | 674 s |
| O=C(Cc1ccc(F)cc1)NC1CCN(c2cc(-c3ccc(F)cc3)[nH]n2)C1 (centres undefined) | 720 s |
| O=C(CSc1ccc(-c2ccc(-n3ccnc3)cc2)nn1)NCc1ccco1 | 554 s |
| O=C(NCCc1nc(-c2ccc3c(c2)OCO3)n[nH]1)c1ccc(F)c(Cl)c1 | 743 s |
| CC1=C(c2ccc(C)cc2)S(=O)(=O)N=C1N1CCCN(C(=O)c2cccs2)CC1 | 836 s |
| CCOC(=O)c1sc(NC(=O)c2cccs2)nc1C | 892 s |

| SMILES | RP-LC retention time |
| --- | --- |
| COCCCNC(=O)CC1Sc2ncccc2N(C)C1=O (centres undefined) | 600 s |
| Cc1cccc(-n2ccc(=O)c(-c3nc(-c4ccc5c(c4)OCO5)no3)n2)c1 | 894 s |
| Fc1cccc(CN2CCC(N3CC(OCC4CC4)C34CCCCC4)CC2)c1 (centres undefined) | 588 s |
| Cn1ncc2c3ccccc3n(CCCC(=O)NCCc3cccs3)c2c1=O | 834 s |
| Cc1ccc(C)c(N2CCN(C(=O)C3CCN(c4cnc5nccnc5c4)CC3)CC2)c1 | 907 s |
| CC1Oc2ccc(S(=O)(=O)N3CCC(C(=O)NCc4ccco4)CC3)cc2NC1=O (centres undefined) | 722 s |
| CCc1ccc2oc(C(=O)NCC(c3cccs3)N(C)C)cc(=O)c2c1 (centres undefined) | 654 s |
| Cc1ccc2[nH]cc(CCNC(=O)CC3CCN(C(=O)NC4CCCCC4)CC3)c2c1 | 808 s |
| CCOc1cc(C2NCCc3c2[nH]c2ccc(Cl)cc32)ccc1O (centres undefined) | 671 s |
| Cc1ccc(Sc2nccnc2N2CCCC(C(=O)NCc3ccc(C)o3)C2)cc1 (centres undefined) | 1080 s |
| CC1(C(=O)NCc2ccccc2)CCCN(C(=O)NC2CCCCC2)C1 (centres undefined) | 857 s |
| O=C1NCCCCCCN(C(=O)c2cn[nH]c2)[C@H]2CCC[C@@H]12 | 625 s |
| O=c1ccc(-c2ccc3c(c2)OCO3)nn1Cc1nc(-c2ccc(C(F)(F)F)cc2)no1 | 1070 s |
| CC(C)c1cc(N2CCN(C(=O)c3ccccc3)CC2)nc2nncn12 | 594 s |
| O=C(C1=NN(Cc2ccccc2F)c2cc(Cl)ccc2S1(=O)=O)N1CCOCC1 | 833 s |
| Cc1cc(Br)ccc1NC(=O)C1CCN(c2cc(=O)n(C)c(=O)n2C)CC1 | 745 s |
| O=C(CCc1nnc2ccc(NCc3ccccc3Cl)nn12)N1CCN(c2ccccn2)CC1 | 613 s |
| CC(C)CCN1C[C@@H]2C(=O)N(CCN3CCc4ccccc4C3)C(=O)[C@@H]2C1 | 561 s |
| COc1cccc(Cn2c(=O)c3sccc3n(Cc3nc(-c4ccccc4OC)no3)c2=O)c1 | 987 s |
| COc1ccc(N2CC(c3nc(-c4ccc(Cl)cc4)no3)CC2=O)cc1 (centres undefined) | 998 s |
| CCc1ccccc1S(=O)(=O)N1CCC(C(=O)NCCc2csc(-c3ccccc3)n2)CC1 | 1010 s |
| Cc1ccc2nc(NC(=O)CSc3nnc(CNC(=O)c4ccco4)o3)sc2c1 | 705 s |
| CC(C)NC(=O)c1ccc2c(c1)nc(CN(C)C(=O)Nc1ccc3c(c1)OCCO3)n2C | 616 s |

| SMILES | RP-LC retention time |
| --- | --- |
| Cc1cccc(N2C(=O)CN(CCC(C)C)[C@H]3CS(=O)(=O)C[C@H]32)c1 | 811 s |
| Cc1ccc(CNC(=O)C2CCN(C(=O)N3CCOc4ccc(Cl)cc43)CC2)cc1 | 919 s |
| O=C(NC1CCN(Cc2ccccc2)CC1)C1CCCN(c2nccnc2Oc2ccccc2)C1 (centres undefined) | 680 s |
| Cn1ncc2c3ccccc3n(CC(=O)NCCc3c[nH]c4ccc(Cl)cc34)c2c1=O | 860 s |
| COc1ccc(-c2noc(CN3C(=O)COc4ccccc43)n2)cc1 | 953 s |
| Cn1c(=O)n([C@@H]2CCN(C(=O)C3CCC3)C2)c2ncccc21 | 639 s |
| Cc1ccc(NC(=O)C2CCCN(C(=O)C3Sc4ccccc4NC3=O)C2)c(C)c1 (centres undefined) | 762 s |
| O=C(Nc1cccc(Cl)c1)N1CCC(n2cnnc2C2CC2)C1 (centres undefined) | 658 s |
| Cn1c(=O)c2cc(C(=O)NCC3CCCCC3)nn2c2ccccc21 | 957 s |
| CC(C)(C)C(=O)NC1CCN(C(=O)C2CC2)C1 (centres undefined) | 623 s |
| Cc1sc(-c2nc(-c3ccccc3)no2)cc1S(=O)(=O)N1CCN(c2ncccn2)CC1 | 1210 s |
| COC(=O)C1=CN(C2CC2)c2cc(N3CCC(C)CC3)c(F)cc2S1(=O)=O | 1010 s |
| Cc1oc(-c2[nH]ncc2C(=O)N2CCCCC2)cc1S(=O)(=O)Nc1ccc(F)c(F)c1 | 780 s |
| N#Cc1ccc(CN2C[C@@H](CO)[C@H](c3ccccn3)C2)cc1 | 569 s |
| COc1ccc(NC(=O)N2CCN(C3=CC4=NC(C)CN4C=N3)CC2)c(C)c1 (centres undefined) | 649 s |
| CN1CCCC1c1nc(C2CN(S(=O)(=O)c3ccc(C#N)cc3)C2)no1 (centres undefined) | 602 s |
| Cc1cc(-c2csc(S(=O)(=O)NCCCN3CCN(Cc4ccccc4)CC3)c2)on1 | 650 s |
| COc1cc(OC)cc(C(=O)Nc2cccc(C(C)=O)c2)c1 | 753 s |
| CCNC(=O)Cn1c(=O)c2cnc(-c3ccc(Cl)cc3)nc2n(C)c1=O | 927 s |
| CC(C)CCNC(=O)N1CCC2(CC1)C(=O)N(C)c1ccccc12 | 813 s |
| COc1ccc2[nH]cc(C3=CCNCC3)c2c1 | 648 s |
| CCCN1C(=O)c2n[nH]c(-c3ccco3)c2C1c1ccc(O)c(OC)c1 (centres undefined) | 699 s |
| Cc1ccc2c(c1)OCC(=O)N2Cc1nc(-c2ccc(F)cc2)no1 | 970 s |

| SMILES | RP-LC retention time |
| --- | --- |
| COC(=O)c1c(C)[nH]c(C(=O)N2CCC(CC(=O)NCCC(C)C)CC2)c1C | 716 s |
| Cc1nc2cc(NC(=O)c3cn(C)nn3)ccc2s1 | 629 s |
| COc1ccc(CNC(=O)c2[nH]c3cc(C)sc3c2CN2CCCC2)cc1 | 679 s |
| COc1cccc(NC(=O)C2CCN(S(=O)(=O)c3cn(C)cn3)CC2)c1 | 656 s |
| O=C1CCCc2cc(S(=O)(=O)NCC3CCN(Cc4ccc(F)cc4)CC3)ccc2N1 | 603 s |
| O=C(CCc1csc(NC(=O)c2ccc(F)cc2)n1)NCc1nc2ccccc2[nH]1 | 577 s |
| CN1C(=O)c2cccn2CC1CNC(=O)c1nccn1C (centres undefined) | 573 s |
| C=CCNC(=O)CCc1c(-c2ccc(Cl)cc2)nc2ccccn12 | 615 s |
| Cn1nc(-c2nnc(-c3ccccc3Cl)o2)c2c1CCN(C(=O)c1ccc(F)c(F)c1)C2 | 877 s |
| CSc1ccc(-c2noc(Cc3nnc(-c4cccc(Br)c4)o3)n2)cc1 | 1170 s |
| COc1ccc(-c2cc3c(=O)n(Cc4ccc(F)cc4)ccn3n2)cc1OC | 913 s |
| CCn1cc(CCNC(=O)Nc2ccc(Cl)cc2F)c2cccnc21 | 824 s |
| COc1cc2c(cc1NC(=O)c1cccs1)n(C)c(=O)n2C | 717 s |
| Cc1nc2nc(-c3ccccc3)nn2c(C)c1CC(=O)N(CCO)Cc1ccccc1 | 740 s |
| COC(=O)c1ccc(CSc2ccc(NC(=O)c3cccs3)nn2)o1 | 820 s |
| CC(C)CN1CCN(C(=O)c2ccc(-c3ccnc(N4CCCC4)n3)cc2)CC1 | 587 s |
| O=C(Cn1c(=O)n(C2CCCCC2)c2ncccc21)NCCN1CCOCC1 | 627 s |
| COc1cc(NS(=O)(=O)c2cc3n(c2)CCN(C)C3=O)cc(OC)c1 | 671 s |
| O=C(c1cc2c(=O)n(Cc3ccccc3)ccc2s1)N1CCCCCC1 | 876 s |
| Nc1nc(N2CCOCC2)nc2ccccc12 | 572 s |
